The values below come from patent US20240148821A1, “PHARMACEUTICAL USE OF CYCLIC PEPTIDE COMPOUND” (CHUGAI SEIYAKU KABUSHIKI KAISHA, priority 2021, published 2024).

SMILES strings stand for the structures. Numbered stars: 1 amine (or outer) side, 2 acyl side, 3 side chain; on linkers, the order of the positions; unused ones are H or OH. Bridge positions count the residues as written; N and C are the ends. Square brackets hold non-standard residues; d marks the D form. Peptide text beside a SMILES is read from it. * marks the point of attachment. hPhe(3-Cl-4-CF3) = N[C@@H](CCc1ccc(C(F)(F)F)c(Cl)c1)C(=O)O; NMePhe(4-CF3) = CN[C@@H](Cc1ccc(C(F)(F)F)cc1)C(=O)O; NMePhe(4-Cl) = CN[C@@H](Cc1ccc(Cl)cc1)C(=O)O; NMePhe(4-Me) = CN[C@@H](Cc1ccc(C)cc1)C(=O)O; hPhe(3-Cl) = N[C@@H](CCc1cccc(Cl)c1)C(=O)O; X119 = CN(C)C(=O)CCCN(CC(=O)[*:2])[*:1]; NMeGly(cPent) = CN[C@H](C(=O)O)C1CCCC1; NMeCha = CN[C@@H](CC1CCCCC1)C(=O)O; NMeChg = CN[C@H](C(=O)O)C1CCCCC1; NMeF = CN[C@@H](Cc1ccccc1)C(=O)O; NMeD = CN[C@@H](CC(=O)O)C(=O)O; NMeL = CN[C@@H](CC(C)C)C(=O)O; NMeNle = CCCC[C@H](NC)C(=O)O; NMeV = CN[C@H](C(=O)O)C(C)C; d(β3hA) = C[C@@H](N)CC(=O)O; NMeA = CN[C@@H](C)C(=O)O; Piperidide = C1CCN(*)CC1; dNMeA = CN[C@H](C)C(=O)O; Ac5c = NC1(C(=O)O)CCCC1; Aze = O=C(O)[C@@H]1CCN1; Aib = CC(C)(N)C(=O)O; Sar = CNCC(=O)O

The first assay has as its target protein-protein interaction between Kras and SOS1 (biotin-tagged human Kras loaded with GDP, His-tagged human SOS1) (Homo sapiens (Human), UniProt P01116, G12D). As to the kind of experiment: Protein-protein interaction inhibition between Kras and SOS1 (KrasG12D-SOS PPI) using AlphaScreen.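 Note: kras produced in E. coli, Ni-coupled donor beads and streptavidin acceptor beads, excitation 680 nm with emission detected at 520–620 nm via singlet oxygen transfer.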 It counts as biochemical.
Settings: not given
On the technique in general: Alpha assays give light when donor and acceptor beads are brought close together.
In the case of `CC[C@H](C)[C@@H]1NC(=O)[C@H](CC(C)C)N(C)C(=O)C[C@@H](C(=O)N2CCCCC2)N(C)C(=O)[C@H](C2CCCCC2)N(C)C(=O)C2(CCCC2)NC(=O)CN(CCCC(=O)N(C)C)C(=O)[C@H](CCc2ccc(C(F)(F)F)c(Cl)c2)NC(=O)CN(C)C(=O)[C@H](CC2CCCCC2)N(C)C(=O)CN(C)C(=O)CN(C)C1=O` [Compound 2052, 4-[(11S,17S,26S,29S,33S,36S)-11-[2-[3-chloro-4-(trifluoromethyl)phenyl]ethyl]-36-cyclohexyl-17-(cyclohexylmethyl)-29-isobutyl-15,18,21,24,30,34,37-heptamethyl-26-[(1S)-1-methylpropyl]-7,10,13,16,19,22,25,28,31,35,38-undecaoxo-33-(piperidine-1-carbonyl)-6,9,12,15,18,21,24,27,30,34,37-undecazaspiro[4.33]octatriacontan-9-yl]-N,N-dimethyl-butanamide] ([NMeL]I[Sar][Sar][NMeCha][Sar][hPhe(3-Cl-4-CF3)][X119][Ac5c][NMeChg][NMeD]-Piperidide; lactam N-11), the midpoint of inhibition, the IC50, lay at 4.9 nM.

Staying with this assay, now noted: AlphaScreen; biotin-tagged human Kras loaded with GDP, His-tagged human SOS1; read-out: KRAS G12D-SOS PPI IC50.
`CC[C@H](C)[C@@H]1NC(=O)[C@H](C)N(C)C(=O)C[C@@H](C)NC(=O)[C@H](C(C)C)N(C)C(=O)C2(CCCC2)NC(=O)[C@@H]2CCCN2C(=O)[C@H](CCc2ccc(C(F)(F)F)c(Cl)c2)NC(=O)[C@@H](C)N(C)C(=O)[C@H](Cc2ccccc2)N(C)C(=O)[C@@H]2CCCN2C(=O)CN(C)C1=O` [Compound 1783] (cyclo([Ac5c][NMeV][d(β3hA)][NMeA]I[Sar]P[NMeF][dNMeA][hPhe(3-Cl-4-CF3)]P)): the IC50 (commonly the concentration that inhibits the measured activity by half) turned out to be 52 nM.
`CC[C@H](C)[C@@H]1NC(=O)[C@H](C)N(C)C(=O)C[C@@H](C)NC(=O)[C@H](C2CCCC2)N(C)C(=O)C2(CCCC2)NC(=O)[C@@H]2CCCN2C(=O)[C@H](CCc2ccc(C(F)(F)F)c(Cl)c2)NC(=O)[C@H]2CCCN2C(=O)[C@H](Cc2ccc(C)cc2)N(C)C(=O)CN(C)C(=O)CN(C)C1=O` [Compound 1525] (cyclo([Ac5c][NMeGly(cPent)][d(β3hA)][NMeA]I[Sar][Sar][NMePhe(4-Me)][dP][hPhe(3-Cl-4-CF3)]P)): the IC50 was 100 nM.
On the same count and under the same terms, with `CC[C@H](C)[C@@H]1NC(=O)[C@H](C)N(C)C(=O)C[C@@H](C)NC(=O)[C@H](C2CCCC2)N(C)C(=O)C2(CCCC2)NC(=O)[C@@H]2CCCN2C(=O)[C@H](CCc2ccc(C(F)(F)F)c(Cl)c2)NC(=O)CN(C)C(=O)[C@H](Cc2ccc(C(F)(F)F)cc2)N(C)C(=O)[C@@H]2CCCN2C(=O)CN(C)C1=O` [Compound 749] (cyclo([Ac5c][NMeGly(cPent)][d(β3hA)][NMeA]I[Sar]P[NMePhe(4-CF3)][Sar][hPhe(3-Cl-4-CF3)]P)) the figure was 2.8 nM; with `CCCC[C@H]1C(=O)N(C)[C@H](C(=O)N2CCCCC2)CC(=O)N(C)[C@@H](CC(C)C)C(=O)N[C@@H]([C@@H](C)CC)C(=O)N(C)[C@@H](C)C(=O)N2CC[C@H]2C(=O)N(C)[C@@H](CC2CCCCC2)C(=O)N(C)CC(=O)N[C@@H](CCc2ccc(C(F)(F)F)c(Cl)c2)C(=O)N2CCC[C@H]2C(=O)NC2(CCCC2)C(=O)N1C` [Compound 1859] ([NMeL]I[NMeA][Aze][NMeCha][Sar][hPhe(3-Cl-4-CF3)]P[Ac5c][NMeNle][NMeD]-Piperidide; lactam N-11), 15 nM; with `CC[C@H](C)[C@@H]1NC(=O)[C@H](C)N(C)C(=O)C[C@@H](C)NC(=O)[C@H](CC(C)C)N(C)C(=O)C(C)(C)NC(=O)[C@H](CC(C)C)N(C)C(=O)[C@H](CCc2cccc(Cl)c2)NC(=O)CN(C)C(=O)[C@H](Cc2ccc(Cl)cc2)N(C)C(=O)CN(C)C(=O)CN(C)C1=O` [Compound 153] (cyclo([Aib][NMeL][d(β3hA)][NMeA]I[Sar][Sar][NMePhe(4-Cl)][Sar][hPhe(3-Cl)][NMeL])), 60 nM.
